# Assay results published in patent publication US20060094003A1, “Acetylcholine-dependent current as a novel ionic target for atrial fibrillation” (priority 2004, published 2006).
# Values joined by “and” are separate entries in the source; they are usually repeats but may differ in a detail not shown here. Identical values can stand only once.
# Key:
# Kir1 channels = target: T1, Kir1 channels (Homo sapiens, UniProt P48048); conditions: Jin & Lu, 1999; cited from earlier work
# T1 sequence (P48048 1-391): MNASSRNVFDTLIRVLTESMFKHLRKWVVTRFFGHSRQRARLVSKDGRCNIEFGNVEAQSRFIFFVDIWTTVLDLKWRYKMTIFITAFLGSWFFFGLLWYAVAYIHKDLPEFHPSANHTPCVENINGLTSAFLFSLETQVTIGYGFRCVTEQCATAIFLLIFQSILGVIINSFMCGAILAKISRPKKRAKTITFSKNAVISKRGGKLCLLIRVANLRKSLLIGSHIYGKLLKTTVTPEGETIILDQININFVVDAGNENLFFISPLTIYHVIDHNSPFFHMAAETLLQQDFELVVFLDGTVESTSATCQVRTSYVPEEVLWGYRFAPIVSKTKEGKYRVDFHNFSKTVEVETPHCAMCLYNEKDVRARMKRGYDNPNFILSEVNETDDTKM
# IKH = format: cell-based, canine
# Procedure: Adult mongrel dogs of either sex (weighing about 20-35 kg) were anaesthetized with pentobarbital (30 mg kg^−1 I.V.) and artificially ventilated with room air. Hearts and adjacent lung tissue were relatively quickly excised through a left lateral thoracotomy and immersed in oxygenated Tyrode solution (composition detailed hereinbelow) at room temperature. […] A left atrial (LA) preparation with the PVs intact was perfused via the left circumflex coronary artery, and subjected to either standard fine-tipped microelectrode recording of action potentials (APs) or cardiomyocyte isolation with collagenase-containing solutions, as previously described (Ehrlich et al. 2003). Six dogs were subjected to atrial tachycardia-induced remodeling induced by 1 week of atrial pacing at about 400 beats min^−1 after ablation of the AV node, as described in Li et al. 1999. Animal care and handling procedures followed the guidelines of the Canadian Council on Animal Care.
# To isolate LA and PV cardiomyocytes, the proximal circumflex artery was cannulated and the distal ends of PV myocardial sleeves (approximately 1-1.5 cm from the PV-LA junction) were marked with silk thread prior to subsequent enzyme perfusion with collagenase (100 U ml^−1, Worthington, type II), in order to facilitate localization of PV sleeves after enzymatic digestion. […] All comparisons were based on PV and LA cardiomyocytes isolated from each dog on each experimental day. After isolation, cells were stored at 4° C. and studied on the same day. For standard microelectrode experiments, intact tissue preparations including the LA and adjacent PVs were mounted in a chamber and perfused via the circumflex artery with oxygenated Krebs solution at 36±0.5° C. (see for example Kneller et al. 2002).
# Currents were recorded with the whole-cell patch-clamp technique at 36±0.5° C., as described in Yue et al. 1996. All junction potentials were zeroed prior to formation of gigaohm seals. […] Capacitance was assessed using 5 mV, 10 ms hyperpolarizing steps from a holding potential (HP) of −60 mV. […] Original recordings are shown in terms of current amplitude, but mean data are presented as current density (pA pF−1) to control for variability in cell size.
# Currents were recorded with hyperpolarizing and depolarizing pulses (generally 4 s duration) from a HP of −40 mV to selected test potentials (TPs). Recordings were repeated 3 times, and mean values obtained. For the determination of reversal potentials, tail currents were recorded after 1.6 s pulses to −120 mV followed by 3.2 s depolarizations to TPs between −110 and +20. All voltage protocols were delivered at 0.1 Hz.
# Tyrode solution contained (mM): NaCl 136, KCl 5.4, MgCl2 1, CaCl2 1, NaH2PO4 0.33, Hepes 5 and dextrose 10 (pH 7.35 with NaOH). The cell-storage solution contained (mM): KCl 20, KH2PO4 10, dextrose 10, mannitol 40, L-glutamic acid 70, β-OH-butyric acid 10, taurine 20, EGTA 10 and 0.1% bovine serum albumin (pH 7.3, KOH). Nifedipine (5 μM) was used to suppress L-type Ca^2+ current (ICa) in all experiments. 4-Aminopyridine (4-AP, 2 mM) was added to suppress transient outward current (Ito). […] Na+ current (INa) contamination was avoided by using a HP of −40 mV for recording of hyperpolarization-induced currents and by substitution of equimolar Tris-HCl for external NaCl for tail-current recordings.
# Kir2.1 channels = target: T2, Kir2.1 channels (Homo sapiens, UniProt P63252); conditions: at micromolar concentrations; Jin & Lu, 1999; cited from earlier work
# T2 sequence (P63252 1-427): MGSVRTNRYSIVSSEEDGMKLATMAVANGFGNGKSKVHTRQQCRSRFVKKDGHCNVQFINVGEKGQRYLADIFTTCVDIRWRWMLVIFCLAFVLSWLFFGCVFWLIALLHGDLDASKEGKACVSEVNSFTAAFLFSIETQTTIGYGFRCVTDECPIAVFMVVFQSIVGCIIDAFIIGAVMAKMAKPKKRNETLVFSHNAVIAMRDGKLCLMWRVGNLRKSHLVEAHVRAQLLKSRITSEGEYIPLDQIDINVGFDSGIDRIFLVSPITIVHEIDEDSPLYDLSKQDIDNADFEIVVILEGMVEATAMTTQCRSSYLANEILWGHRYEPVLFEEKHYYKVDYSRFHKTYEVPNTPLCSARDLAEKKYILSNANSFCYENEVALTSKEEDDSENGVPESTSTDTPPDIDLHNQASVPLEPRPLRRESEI
# Ito = conditions: at concentrations of 8 to 30 nM; cited from earlier work
# IKr = IKr (Homo sapiens, UniProt Q12809); conditions: at concentrations of 8 to 30 nM; cited from earlier work
# IKs = IKs (Homo sapiens, UniProt P51787); conditions: at concentrations of 8 to 30 nM; cited from earlier work
# Chain of IKr (Q12809 whole entry): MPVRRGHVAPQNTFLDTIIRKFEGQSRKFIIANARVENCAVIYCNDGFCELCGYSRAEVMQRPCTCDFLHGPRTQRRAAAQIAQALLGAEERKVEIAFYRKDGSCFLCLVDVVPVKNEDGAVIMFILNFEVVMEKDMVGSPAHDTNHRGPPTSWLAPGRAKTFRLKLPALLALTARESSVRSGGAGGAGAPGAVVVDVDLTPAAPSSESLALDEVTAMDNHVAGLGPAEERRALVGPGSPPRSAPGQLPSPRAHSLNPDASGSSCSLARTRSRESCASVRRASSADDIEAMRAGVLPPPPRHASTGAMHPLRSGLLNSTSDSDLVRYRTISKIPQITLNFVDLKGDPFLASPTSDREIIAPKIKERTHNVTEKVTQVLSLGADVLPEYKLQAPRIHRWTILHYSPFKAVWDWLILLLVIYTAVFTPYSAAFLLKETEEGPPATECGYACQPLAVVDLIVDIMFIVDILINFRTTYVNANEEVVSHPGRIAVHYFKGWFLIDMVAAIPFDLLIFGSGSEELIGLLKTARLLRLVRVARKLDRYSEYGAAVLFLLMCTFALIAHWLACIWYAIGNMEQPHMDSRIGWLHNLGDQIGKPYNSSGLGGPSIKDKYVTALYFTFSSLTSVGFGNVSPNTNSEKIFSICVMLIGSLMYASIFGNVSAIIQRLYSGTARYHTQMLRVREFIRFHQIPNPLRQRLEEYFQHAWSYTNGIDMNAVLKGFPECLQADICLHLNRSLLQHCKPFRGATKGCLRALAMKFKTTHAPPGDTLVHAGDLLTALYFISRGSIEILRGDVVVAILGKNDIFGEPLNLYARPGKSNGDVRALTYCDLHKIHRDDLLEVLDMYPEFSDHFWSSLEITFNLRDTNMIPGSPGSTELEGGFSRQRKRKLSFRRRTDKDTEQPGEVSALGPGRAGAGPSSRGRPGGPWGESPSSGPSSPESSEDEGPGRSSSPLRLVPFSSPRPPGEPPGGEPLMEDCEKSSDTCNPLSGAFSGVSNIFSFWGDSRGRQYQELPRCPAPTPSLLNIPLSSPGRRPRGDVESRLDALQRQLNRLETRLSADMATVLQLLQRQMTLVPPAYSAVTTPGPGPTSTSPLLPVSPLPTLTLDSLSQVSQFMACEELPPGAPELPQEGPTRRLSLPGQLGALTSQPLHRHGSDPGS
substance,measurement,setting,value
tertiapin-Q,IC50,Kir1 channels,2 nM
same,effect on time-dependent IKH (in words),"IKH; 200 nM tertiapin-Q, PV cardiomyocyte",abolished
same,effect on time-dependent current (in words),"IKH; 1 μM tertiapin-Q, PV cardiomyocytes",eliminated
same,IC50,"IKH; at −120 mV, PV cardiomyocytes, read-out: IC50 for time-dependent IKH",10 nM and ~10 nM
same,mean end-pulse current,"IKH; at −120 mV, after 200 nM tertiapin-Q (before −2.84±0.89)",0.09±0.01 pA pF^−1
same,effect on Kir2.1 channels (in words),Kir2.1 channels,minimal effects
same,effect on Ito (in words),Ito,no effect
same,effect on IKr (in words),IKr,no effect
same,effect on IKs (in words),IKs,no effect
